From patent publication US12522588B2, “Herbicidal compounds” (SYNGENTA CROP PROTECTION AG, priority 2020, dated 2026)

Assays:
Assay type in all cases: in vivo
[1] = tested on: Abutilon theophrasti (ABUTH); test: Post-emergence test, glasshouse; details: 250 g/ha
Method: (§1) Seeds of a variety of test species are sown in standard soil in pots Amaranthus retoflexus (AMARE), Abutilon theophrasti (ABUTH), Setaria faberi (SETFA), Echinochloa crus-galli (ECHCG), Ipomoea hederacea (IPOHE)). After cultivation for one day (pre-emergence) or after 8 days cultivation (post-emergence) under controlled conditions in a glasshouse (at 24/16° C., day/night; 14 hours light; 65% humidity), the plants are sprayed with an aqueous spray solution derived from the formulation of the technical active ingredient in acetone/water (50:50) solution containing 0.5% Tween 20 (polyoxyethelyene sorbitan monolaurate, CAS RN 9005-64-5). Compounds are applied at 250 g/ha unless otherwise stated. The test plants are then grown in a glasshouse under controlled conditions in a glasshouse (at 24/16° C., day/night; 14 hours light; 65% humidity) and watered twice daily. After 13 days for pre and post-emergence, the test is evaluated for the percentage damage caused to the plant. The biological activities are shown in the following table on a five-point scale (5=81-100%; 4=61-80%; 3=41-60%; 2=21-40%; 1=0-20%).

[2] = tested on: Amaranthus retoflexus (AMARE); test: Post-emergence test, glasshouse; details: 250 g/ha
Method: as §1

[3] = tested on: Echinochloa crus-galli (ECHCG); test: Post-emergence test, glasshouse; details: 250 g/ha
Method: as §1

Setaria faberi (SETFA) [4] = test: Post-emergence test, glasshouse; details: 250 g/ha
Method: as §1

[5] = tested on: Abutilon theophrasti (ABUTH); test: Pre-emergence test, glasshouse; details: 250 g/ha; for percentage damage caused to the plant, ABUTH: evaluated after 13 days, Table B2; for percentage damage caused to the plant, LABUTH: comparative test
Method: as §1

[6] = tested on: Amaranthus retoflexus (AMARE); test: Pre-emergence test, glasshouse; details: 250 g/ha
Method: as §1

[7] = tested on: Echinochloa crus-galli (ECHCG); test: Pre-emergence test, glasshouse; details: 250 g/ha
Method: as §1

[8] = tested on: Ipomoea hederacea (IPOHE); test: Pre-emergence test, glasshouse; details: 250 g/ha
Method: as §1

Setaria faberi (SETFA) [9] = test: Pre-emergence test, glasshouse; details: 250 g/ha
Method: as §1

[10] = tested on: Ipomoea hederacea (IPOHE); test: Post-emergence test, glasshouse; details: 250 g/ha
Method: as §1

[11] = evaluated after 13 days, Table B1
[12] = evaluated after 13 days, Table B2

SMILES	percentage damage caused to the plant, ABUTH [1, 11]	percentage damage caused to the plant, ABUTH ([1]; comparative test)	percentage damage caused to the plant, AMARE [2, 11]	percentage damage caused to the plant, AMARE ([2]; comparative test)	percentage damage caused to the plant, ECHCG [3, 11]	percentage damage caused to the plant, ECHCG ([3]; comparative test)	percentage damage caused to the plant, SETFA (Setaria faberi (SETFA) [4]; [11])	percentage damage caused to the plant, SETFA (Setaria faberi (SETFA) [4]; comparative test)	percentage damage caused to the plant, ABUTH [5]	percentage damage caused to the plant, LABUTH [5]	percentage damage caused to the plant, AMARE [6, 12]	percentage damage caused to the plant, AMARE ([6]; comparative test)	percentage damage caused to the plant, ECHCG [7, 12]	percentage damage caused to the plant, ECHCG ([7]; comparative test)	percentage damage caused to the plant, IPOHE [8, 12]	percentage damage caused to the plant, IPOHE ([8]; comparative test)	percentage damage caused to the plant, SETFA (Setaria faberi (SETFA) [9]; [12])	percentage damage caused to the plant, SETFA (Setaria faberi (SETFA) [9]; comparative test)	percentage damage caused to the plant, IPOHE [10, 11]	percentage damage caused to the plant, IPOHE ([10]; comparative test)
FC(F)(F)c1ccc(-n2nc(C(F)(F)F)cc2Oc2ncc(Cl)cn2)cc1 [Compound 1.001, 5-chloro-2-[5-(trifluoromethyl)-2-[4-(trifluoromethyl)phenyl]pyrazol-3-yl]oxy-pyrimidine]	5 (5=81-100%)	5 (5=81-100%)	5 (5=81-100%)	5 (5=81-100%)	5 (5=81-100%)	5 (5=81-100%)	5 (5=81-100%)	5 (5=81-100%)	4 (4=61-80%)	4 (4=61-80%)	5 (5=81-100%)	5 (5=81-100%)	5 (5=81-100%)	5 (5=81-100%)	5 (5=81-100%)	5 (5=81-100%)	5 (5=81-100%)	5 (5=81-100%)	–	–
FC(F)(F)c1cc(Oc2ncc(Cl)cn2)n(-c2ccc(Cl)cc2)n1 [Compound 1.002]	3 (3=41-60%)	3 (3=41-60%)	5 (5=81-100%)	5 (5=81-100%)	5 (5=81-100%)	5 (5=81-100%)	5 (5=81-100%)	5 (5=81-100%)	2 (2=21-40%)	2 (2=21-40%)	5 (5=81-100%)	5 (5=81-100%)	5 (5=81-100%)	5 (5=81-100%)	1 (1=0-20%)	1 (1=0-20%)	5 (5=81-100%)	5 (5=81-100%)	4 (4=61-80%)	4 (4=61-80%)
FC(F)(F)c1cccc(-n2nc(C(F)(F)F)cc2Oc2ncc(Cl)cn2)c1 [Compound 1.003]	1 (1=0-20%)	–	5 (5=81-100%)	–	1 (1=0-20%)	–	3 (3=41-60%)	–	1 (1=0-20%)	–	5 (5=81-100%)	–	2 (2=21-40%)	–	1 (1=0-20%)	–	5 (5=81-100%)	–	2 (2=21-40%)	–
FC(F)(F)c1cc(Oc2ncc(Cl)cn2)n(-c2cccc(Cl)c2)n1 [Compound 1.004]	1 (1=0-20%)	–	5 (5=81-100%)	–	3 (3=41-60%)	–	3 (3=41-60%)	–	1 (1=0-20%)	–	5 (5=81-100%)	–	2 (2=21-40%)	–	1 (1=0-20%)	–	3 (3=41-60%)	–	4 (4=61-80%)	–
FC(F)c1cc(Oc2ncc(Cl)cn2)n(-c2ccc(C(F)(F)F)cc2)n1 [Compound 1.005]	3 (3=41-60%)	–	5 (5=81-100%)	–	1 (1=0-20%)	–	2 (2=21-40%)	–	1 (1=0-20%)	–	4 (4=61-80%)	–	1 (1=0-20%)	–	1 (1=0-20%)	–	2 (2=21-40%)	–	2 (2=21-40%)	–
Cc1cnc(Oc2cc(C(F)(F)F)nn2-c2ccc(C(F)(F)F)cc2)nc1 [Compound 1.020, 5-methyl-2-[5-(trifluoromethyl)-2-[4-(trifluoromethyl)phenyl]pyrazol-3-yl]oxy-pyrimidine]	–	–	5 (5=81-100%)	–	4 (4=61-80%)	–	4 (4=61-80%)	–	–	–	5 (5=81-100%)	–	5 (5=81-100%)	–	1 (1=0-20%)	–	5 (5=81-100%)	–	3 (3=41-60%)	–
